Test results published in patent US9598365B2, “Method for synthesizing cycloalkanyl[b]indoles, cycloalkanyl[b]benzofurans, cycloalkanyl[b]benzothiophenes, compounds and methods of use” (Trustees of Dartmouth College, priority 2012, dated 2017).
Where “and” joins values, the source holds several entries; their conditions need not be identical. Equal values may be shown once.

Experiments:
[1] = molecular target: T1, hApelin (Homo sapiens, UniProt P35414); assay: Apelin receptor agonist, hApelin agonism; format: cell-based; conditions: @ 30 μM
T1 sequence (P35414 1-380): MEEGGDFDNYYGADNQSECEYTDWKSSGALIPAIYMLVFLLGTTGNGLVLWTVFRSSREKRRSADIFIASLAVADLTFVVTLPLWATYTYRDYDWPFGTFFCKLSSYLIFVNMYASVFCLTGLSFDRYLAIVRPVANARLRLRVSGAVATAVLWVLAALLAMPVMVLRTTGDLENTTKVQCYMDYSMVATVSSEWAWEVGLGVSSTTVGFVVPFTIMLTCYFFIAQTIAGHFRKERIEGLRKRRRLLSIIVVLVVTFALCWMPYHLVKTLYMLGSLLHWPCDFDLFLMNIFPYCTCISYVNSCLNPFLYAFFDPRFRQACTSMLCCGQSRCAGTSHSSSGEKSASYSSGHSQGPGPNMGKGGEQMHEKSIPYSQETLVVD
Source text: (§1) Selected compounds of this invention were screened for K-Ras Wnt synthetic lethal, anti-angiogenic activity, Wnt pathway modulatory activity, insulin and GLP-1 secretion modulatory activity, GPR119 receptor agonist activity, mGlu2R antagonist activity, CGRP receptor antagonist activity, Apelin receptor agonist activity and hexokinase 2 inhibitory activity using the PD^2 and TD^2 Screening Panel (Eli Lilly & Company). See Lee, et al. (2011) J. Biomol. Screen. 16:588-602.

[2] = system: Angio Tube Area; assay: Anti-angiogenic activity, Angio Tube Area; format: cell-based; conditions: read-out: Angio Tube Area % Inhibit
Source text: as §1

[3] = molecular target: hMGLUR2 (Homo sapiens, UniProt Q14416); assay: mGlu2R antagonist, hMGLUR2; format: cell-based
Source text: as §1

[4] = system: Wnt Pathway; assay: Wnt pathway modulatory activity, Osteo bCat; format: cell-based
Source text: as §1

[5] = system: HCT116; assay: K-Ras Wnt synthetic lethal, HCT116 KrasSL; format: cell-based; conditions: Homo sapiens, HCT-116, read-out: HCT116 KrasSL % Inhibit
Source text: as §1

[6] = system: Insulin Secretion; assay: Insulin secretion, Secretion Hi Gluc; format: cell-based
Source text: as §1

[7] = system: RKO; assay: K-Ras Wnt synthetic lethal, RKO KrasSL; format: cell-based; conditions: Homo sapiens, average of three independent experiments, read-out: RKO KrasSL % Inhibit
Source text: as §1

[8] = Plasma compound exposure after oral dosing in mice; format: in vivo, Mice (male C57BL/6); conditions: male, C57BL/6, mouse, plasma, oral 100 mg/kg, 30 minutes post-dose, read-out: mean (±standard deviation) plasma levels
Procedure: (§2) Mice (male C57BL/6, 8-10 weeks of age) were fasted overnight by being placed in a clean cage without food. The next day, all mice were weighed and assigned to groups of similar body weights. Test compounds were formulated in 1% HEC, 0.25% TWEEN 80, 0.05% antifoam (vehicle control). Compounds 11ls and llu were orally dosed (100 mg/kg) and cardiac sticks were done on CO2 euthanized mice at 30 minutes post-dose. Blood (500+μL whole blood) from the cardiac stick was placed in chilled EDTA-plasma tubes with inhibitors, DPP4 inhibitor (5 μL/500 μL blood) and aprotinin (bovine lung, […]/500 μL blood), and stored on ice. Plasma was separated by centrifugation and aliquoted for compound exposure to total GIP and GLP-1 (X-36 amide). Plates for compound exposure were analyzed for absorption, distribution, metabolism, and excretion, while conventional kits were used for GLP-1 (x-36) amide (Mesoscale) and GIP (Millipore) analyses.

[9] = system: SNU-C1; assay: K-Ras Wnt synthetic lethal, SNU-C1 KrasSL; format: cell-based; conditions: Homo sapiens, read-out: SNU-C1 KrasSL % Inhibit
Source text: as §1

[10] = system: GLP-1 (X-36 amide); assay: Plasma GLP-1 response to oral compound in mice; format: in vivo, Mice (male C57BL/6); conditions: oral 100 mg/kg, plasma 30 minutes post-dose
Procedure: as §2

[11] = system: Co1o320; assay: K-Ras Wnt synthetic lethal, Co1o320 KrasSL; format: cell-based; conditions: read-out: Co1o320 KrasSL % Inhibit
Source text: as §1

[12] = molecular target: T2, hGPR119 (Homo sapiens, UniProt Q8TDV5); assay: GPR119 receptor agonist, hGPR119 agonism; format: cell-based; conditions: @ 10 μM
T2 sequence (Q8TDV5 1-335): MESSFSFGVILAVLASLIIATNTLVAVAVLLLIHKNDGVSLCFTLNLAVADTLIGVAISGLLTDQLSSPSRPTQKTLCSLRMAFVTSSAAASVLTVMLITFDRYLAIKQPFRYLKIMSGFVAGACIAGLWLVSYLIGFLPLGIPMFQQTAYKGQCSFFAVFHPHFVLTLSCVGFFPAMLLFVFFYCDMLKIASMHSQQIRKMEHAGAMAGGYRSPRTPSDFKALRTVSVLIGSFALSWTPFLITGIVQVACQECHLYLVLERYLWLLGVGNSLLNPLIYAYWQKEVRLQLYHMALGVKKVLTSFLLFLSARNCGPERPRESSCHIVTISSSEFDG
Source text: as §1

[13] = system: Pituitary Cells; assay: Secondary assay, pituitary cells growth hormone secretion; format: cell-based; conditions: @ 3.3 μM
Procedure: (§3) In light of the above results, additional compounds (Table 7) were prepared and phenotypic assays were carried out using hNCI-H716 and mSTC-1 cell lines to monitor GLP-1 secretion (single point (SP) and concentration response curves (CRC)) (Table 8), as well as a secondary assay with pituitary cells (Table 9).

[14] = system: hNCI-H716; assay: hNCI basal LDH secretion; format: cell-based; conditions: read-out: Primary CRC (EC50, μM) hNCI Basal
Procedure: as §3

[15] = system: GIP; assay: Plasma GIP response to oral compound in mice; format: in vivo, Mice (male C57BL/6); conditions: oral 100 mg/kg, plasma 30 minutes post-dose
Procedure: as §2

[16] = system: hNCI-H716; assay: hNCI-H716 GLP-1 secretion; format: cell-based
Source text: as §1, §3

Chain of hMGLUR2 (Q14416 19-872): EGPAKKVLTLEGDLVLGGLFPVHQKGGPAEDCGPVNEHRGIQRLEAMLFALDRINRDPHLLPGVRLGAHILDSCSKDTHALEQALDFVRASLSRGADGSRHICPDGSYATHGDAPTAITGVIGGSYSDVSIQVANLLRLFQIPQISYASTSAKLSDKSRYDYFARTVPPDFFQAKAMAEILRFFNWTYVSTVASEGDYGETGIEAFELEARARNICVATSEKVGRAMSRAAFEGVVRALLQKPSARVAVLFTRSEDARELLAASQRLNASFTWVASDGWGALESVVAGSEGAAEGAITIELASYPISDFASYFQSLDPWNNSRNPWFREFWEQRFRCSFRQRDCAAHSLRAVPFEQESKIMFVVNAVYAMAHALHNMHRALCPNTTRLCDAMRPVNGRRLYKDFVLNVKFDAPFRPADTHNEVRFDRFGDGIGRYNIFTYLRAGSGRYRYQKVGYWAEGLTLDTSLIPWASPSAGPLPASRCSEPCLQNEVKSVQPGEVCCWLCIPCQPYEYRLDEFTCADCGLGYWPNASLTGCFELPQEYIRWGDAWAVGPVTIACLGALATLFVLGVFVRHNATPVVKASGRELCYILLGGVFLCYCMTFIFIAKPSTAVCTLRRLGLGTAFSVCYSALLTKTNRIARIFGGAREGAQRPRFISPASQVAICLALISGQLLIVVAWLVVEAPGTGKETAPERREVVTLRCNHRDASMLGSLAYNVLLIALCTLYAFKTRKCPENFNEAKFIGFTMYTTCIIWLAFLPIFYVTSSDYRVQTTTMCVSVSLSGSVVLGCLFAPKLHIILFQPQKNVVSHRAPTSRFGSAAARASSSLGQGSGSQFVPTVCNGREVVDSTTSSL

Structure (SMILES): CC1(C)c2c([nH]c3ccc(Cl)cc23)C2C=CC1C2 (stereo not drawn) [Compound 11s]
- hApelin agonism % Stimulation [1]: −46.2%
- inhibition at 2 µM ([2]; @ 2 μM): 21.7%
- inhibition at 10 µM ([2]; @ 10 μM): 21.8%
- inhibition at 50 µM [3]: -20.4%
- Osteo bCat % Stimulation ([4]; @ 2 μM): 1.3%
- Osteo bCat % Stimulation ([4]; @ 10 μM): 9.3%
- inhibition at 0.2 µM ([5]; @ 0.2 μM): 2.3%
- inhibition at 2 µM ([5]; @ 2 μM): -38%
- inhibition at 20 µM ([5]; @ 20 μM): 96.4%
- Secretion Hi Gluc % Stimulation ([6]; @ 2 μM): −1.2%
- Secretion Hi Gluc % Stimulation ([6]; @ 10 μM): 15.8%
- inhibition at 0.2 µM ([7]; @ 0.2 μM): -2.8%
- inhibition at 2 µM ([7]; @ 2 μM): 14.4%
- inhibition at 20 µM ([7]; @ 20 μM): 102%
- concentration at 30 min [8]: 412 ± 88.2 ng/mL
- inhibition at 0.2 µM ([9]; @ 0.2 μM): 15.7%
- inhibition at 2 µM ([9]; @ 2 μM): 5.5%
- inhibition at 20 µM ([9]; @ 20 μM): 106%
- Avg. GLP-1 (pg/mL) ±SEM [10]: 5.52 ± 1.18 pg/mL
- inhibition at 0.2 µM ([11]; @ 0.2 μM): 33.3%
- inhibition at 2 µM ([11]; @ 2 μM): 15.8%
- inhibition at 20 µM ([11]; @ 20 μM): 150%
- hGPR119 agonism % Stimulation [12]: −5.1%
- Pituitary Cells (Growth Hormone Secretion, % Stimulation) [13]: −10.0% and −17.7% and −18.6%
- EC50 [14]: > 40 µM
- Avg. GIP (pg/mL) ±SEM [15]: 23.42 ± 7.44 pg/mL
- activation at 2 µM ([16]; 2 μM, GLP-1 secretion, single point, read-out: Primary SP hNCI (% Stim.)): -1.7%
- activation at 20 µM ([16]; 20 μM, GLP-1 secretion, single point, read-out: Primary SP hNCI (% Stim.)): 108%
- hNCI GLP-1 Secretion % Stimulation ([16]; @ 2 μM): −1.7%
- hNCI GLP-1 Secretion % Stimulation ([16]; @ 20 μM): 108%
- EC50 ([16]; GLP-1 secretion, concentration response curve, read-out: Primary CRC (EC50, μM) hNCI): 34.8 µM and 33.5 µM and 23.2 µM and > 40 µM
- EC50 ([16]; average of three independent experiments, read-out: hNCI GLP-1 Secretion EC50): 34.8 µM
- EC50 ([16]; secretion and/or production of GLP-1, read-out: EC50 values (Table 6)): 35 µM
